Here are results for 14 compounds from patent US5108747A, “Stable oxpenem-3-carboxylic acids as beta-lactamase inhibitors” (Bayer Aktiengesellschaft, priority 1988, dated 1992).

Entries after “also recorded” stand apart in the source; their conditions may differ. Structures can show the parent of a compound that is named as a salt. Where two headings read alike, the source gives them in different places.

For data set [1], the system named is similar bacteria. The following applies: 25 μg applied, J. Amer. Chem. Soc. 100, 8004 (1978); cited from earlier work.
The conditions of data set [2]: cited from earlier work.
Data set [3] deals with Staph. aureus DSM 1104. As to the kind of experiment: agar diffusion test, Staph. aureus DSM 1104. The format is cell-based, Staphylococcus aureus. The protocol:
The compound IIIe designated as preferred in earlier patent applications (for example in EP 18,305) hydrolyzes in a few minutes and could never be transported efficiently by the blood vessel (pH 7.4, 37° C.) to the site of action undamaged. […] Using Staphylococcus aureus DSM 1104, only an inhibition halo of a few mm was determined in the agar diffusion test after applying 250 μg of IIIe.
(§1) Certain representatives are just as effective against gram-positive as against gram-negative bacteria and resistant bacteria.
In general terms: In agar diffusion tests the substance spreads into inoculated agar from a disc or well.

For data set [4], the system named is Escherichia coli W 3110 R6K (TEM 1). As to the kind of experiment: agar diffusion test, Escherichia coli W 3110 R6K (TEM 1) (β-lactamase-forming). Format: cell-based.
For data set [5], the system named is Staph. aureus 012484/77. Briefly: agar diffusion test, Staph. aureus 012484/77 (penicillin- and cephalosporin-resistant). Format: cell-based, Staphylococcus aureus.
Excerpt: as §1

Data set [6] has as its system Escherichia coli DSM 1103. Briefly: agar diffusion test, Escherichia coli DSM 1103. The format is cell-based.
Excerpt: as §1

Data set [7] relates to bacteria. As to the kind of experiment: antibacterial activity in vitro. Format: cell-based.
Data set [8] is described as follows: Hydrolysis half life at pH 7.4, 37° C. in aqueous phosphate buffer (UV spectroscopy; measure of the stability). The following applies: for half-life: aqueous phosphate buffer. Format: physicochemical.
In data set [9] the test system is isolated bacterial enzymes (β-lactamases). The settings on record: cited from earlier work.
The subject of data set [10] is bacteria. The settings on record: literature; cited from earlier work.
Data set [11] relates to Beta lactamase from Pseudomonas aeruginosa W. As to the kind of experiment: Degradation of mezlocillin by beta lactamase from Pseudomonas aeruginosa W and its prevention (agar hole test). Format: biochemical. The protocol: (§2) Methods: the degradation of mezlocillin was determined with Streptococcus pyogenes W using the agar hole test, the sensitivity limits of which are below 1 mcg/ml.
(§3) Degradation of mezlocillin by beta lactamase and prevention of this degradation by oxapenem "O"

Data set [12] deals with T1, Beta lactamase from E. coli 4787 TEM 1 (Escherichia coli, UniProt P62593).
T1 construct: preparation not described in the excerpts
T1 sequence (P62593 24-286 limits assumed): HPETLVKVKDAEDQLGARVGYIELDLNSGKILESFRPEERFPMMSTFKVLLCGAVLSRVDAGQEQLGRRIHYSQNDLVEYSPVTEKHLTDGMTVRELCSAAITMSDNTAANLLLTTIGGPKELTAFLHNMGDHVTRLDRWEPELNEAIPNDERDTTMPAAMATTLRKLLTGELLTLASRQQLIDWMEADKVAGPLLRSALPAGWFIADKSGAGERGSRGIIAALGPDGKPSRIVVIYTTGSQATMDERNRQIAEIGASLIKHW
As to the kind of experiment: Degradation of mezlocillin by beta lactamase from E. coli 4787 TEM 1 and its prevention (agar hole test). The settings on record: without oxapenem. The format is biochemical. The protocol:
as §2, §3

Data set [13] concerns Staphylococcus aureus 25, 455/1. As to the kind of experiment: Decrease in the colony-forming capacity of Staphylococcus aureus 25, 455/1 in liquid nutrient medium. The following applies: control 3.5 × 10^8. The format is cell-based. The protocol: The colony-forming capacity of the bacteria was determined by plating out the bacteria on OXOID Iso Sensitest Agar. The two methods are international standard methods.
Synergistic effect of the combination. Decrease in the colony-forming capacity of Staphylococcus aureus 25, 455/1 by the action of mezlocillin in liquid nutrient medium.

Data set [14] concerns intact bacteria. The settings on record: antibacterial activity or synergism with ampicillin; Morin and Gorman, page 383; cited from earlier work.
Data set [15] has as its target cephalosporinase of E. cloacae 908 R (Enterobacter cloacae, UniProt P05364). Briefly: in vitro inhibition of the cephalosporinase of E. cloacae 908 R. Format: biochemical. The following applies: relative to formiminothienamycin. From the text: A particular advantage of the oxapenem-3-carboxylic acids according to the invention is that in addition to the abovementioned properties of β-lactamase inhibition they are also themselves antibacterially active per se. It is true that substances having similar properties are known, for example formiminothienamycin (Lit.: Recent Advances in the Chemistry of β-Lactam Antibiotics, ed. by G.I. Gregory, The Royal Society, London, page 279 (1981)). However, the compounds according to the invention show a more rapid, more progressive and more irreversible inhibition of the lactamases with many clinically relevant bacteria. Thus, for example, the cephalosporinase of E. cloacae 908 R is inhibited 780 times more effectively in vitro by the 2-tert-butyl-6-hydroxymethyloxapenem-3-carboxylic acid K salt according to the invention than by formiminothienamycin.

Sequence of cephalosporinase of E. cloacae 908 R (P05364 21-381): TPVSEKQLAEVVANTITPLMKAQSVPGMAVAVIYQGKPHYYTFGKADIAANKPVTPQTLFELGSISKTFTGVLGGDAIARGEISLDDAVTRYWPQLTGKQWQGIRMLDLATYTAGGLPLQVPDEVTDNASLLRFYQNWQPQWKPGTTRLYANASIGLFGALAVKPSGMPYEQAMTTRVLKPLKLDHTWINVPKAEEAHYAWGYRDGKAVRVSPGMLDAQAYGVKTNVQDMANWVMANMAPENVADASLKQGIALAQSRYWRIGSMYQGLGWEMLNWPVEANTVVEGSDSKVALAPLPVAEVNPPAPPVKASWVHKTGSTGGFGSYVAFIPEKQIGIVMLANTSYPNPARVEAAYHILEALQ

On to `C[C@@H](O)[C@H]1C(=O)N2C(C(=O)O)=C(SCCN)C[C@H]12` [thienamycin], for which, in [1], the inhibition halo diameter is recorded as 28-41 mm. The “stability (in words)” value in data set [2] (literature) is given as “very sensitive to hydrolysis”.
Regarding `CC(C)(C)C1=C(C(=O)O)N2C(=O)C(CO)C2O1` (stereo not shown) [3-tert-butyl-6-hydroxymethyl-7-oxo-4-oxa-1-azabicyclo[3.2.0]hept-2-ene-2-carboxylic acid], the zone of inhibition at 10 µg/disc worked out at 30 mm in data set [3] (Staphylococcus aureus, DSM1104, 10 μg applied, read-out: inhibition halo diameter); 32 mm in data set [5] (Staphylococcus aureus, 012484/77, 10 μg applied, read-out: inhibition halo diameter); 30 mm in [6] (DSM1103, 10 μg applied, read-out: inhibition halo diameter). Moreover, the zone of inhibition at 10 µg in data set [4] (Escherichia coli, read-out: inhibition halo diameter) was 29 mm.
As for `CC1=C(C(=O)O)N2C(=O)CC2O1` (stereo not shown) [IIIe], the “antibacterial efficacy (in words)” value in [7] is “virtually ineffective antibacterially”. Besides, in data set [3] (250 μg applied), the “inhibition halo (in words)” value is “a few mm”. For the same compound, in data set [8], the “Hydrolysis half life (in words)” value was “a few minutes”.
With `CCC1=C(C(=O)O)N2C(=O)C[C@H]2O1` [2-ethyl-1-oxapen-2-em-3-carboxylic acid], the “inhibition of isolated bacterial enzymes (β-lactamases) (in words)” value in [9] is “Only an inhibition of isolated bacterial enzymes (β-lactamases) was detectable”. The “antibacterial efficacy (in words)” value in [10] is reported as “virtually ineffective as an antibiotic”. In [2] (aqueous medium), the “stability in aqueous medium (in words)” value is listed as “far too unstable in aqueous medium for antibacterial testing”.
For `CC1(C)S[C@@H]2[C@H](NC(=O)COc3ccccc3)C(=O)N2[C@H]1C(=O)O` [Penicillin V], the zone of inhibition at 130 µg/disc was 42 mm in [3] (Staphylococcus aureus, DSM1104, read-out: inhibition halo diameter) and 13 mm in data set [6] (DSM1103, read-out: inhibition halo diameter). Moreover, the “inhibition (in words)” value in data set [4] (130 μg applied) and in [5] (130 μg applied) was “not inhibited” each time.
For orientation: half-life means the time in which the quantity being followed falls by half. A low value points to rapid decline. Regarding `CC1=C(C(=O)O)N2C(=O)C(C)(C)C2O1` (stereo not shown) [Compound IIId], the half-life in data set [8] is 0.833 h.
As to `CC(C)(C)C1=C(C(=O)O)N2C(=O)C(C)(C)C2O1` (stereo not shown) [Compound IIIa, 2-tert-butyl-6.6-dimethyl-1-oxaoen-2-em-3-carboxylic acid], the half-life in data set [8] is 30 h.
Consider `CC1(C)S[C@@H]2[C@H](NC(=O)[C@H](NC(=O)N3CCN(S(C)(=O)=O)C3=O)c3ccccc3)C(=O)N2[C@H]1C(=O)O` [mezlocillin], for which the Mezlocillin remaining in [11] (reaction time 0 min, without oxapenem) was 100 µg/mL; in [11] (reaction time 30 min, without oxapenem) it was 35 µg/mL; in [11] (reaction time 60 min, without oxapenem) it was 0 µg/mL; in [12] (reaction time 0 min) it was 100 µg/mL; in data set [12] (reaction time 30 min) it was 65 µg/mL; in data set [12] (reaction time 60 min), 43 µg/mL. In data set [12] (reaction time 240 min), the Mezlocillin remaining came out at 0 µg/mL. In data set [13] (2.0 mcg alone), the “Number of colonies after an action time of 6 hrs” value is given as 1.0 × 10^6 N/ml.
Regarding `CC(C)(C)C1=C(C(=O)O)N2C(=O)C[C@H]2O1` [2-tert-butyl-1-oxapen-2-em-3-carboxylic acid], the zone of inhibition at 200 µg/disc was determined as 45 mm in data set [3] (Staphylococcus aureus, DSM1104, 200 μg applied, read-out: inhibition halo diameter); 47 mm in data set [5] (Staphylococcus aureus, 012484/77, 200 μg applied, read-out: inhibition halo diameter); 41 mm in [6] (DSM1103, 200 μg applied, read-out: inhibition halo diameter).
`CCC1=C(C(=O)O)N2C(=O)C(C)(C)C2O1` (stereo not shown) [Compound IIIc] displayed a half-life in data set [8] of 1.17 h.
For `O=C(O)[C@H]1/C(=C/CO)O[C@@H]2CC(=O)N21` [clavulanic acid], the Mezlocillin remaining in data set [11] (reaction time 0 min, with 1 mcg of inhibitor) was 100 µg/mL; in data set [11] (reaction time 0 min, with 10 mcg of inhibitor), 100 µg/mL; in data set [11] (reaction time 30 min, with 1 mcg of inhibitor), 40 µg/mL; in data set [11] (reaction time 30 min, with 10 mcg of inhibitor) it was 27 µg/mL; in data set [11] (reaction time 60 min, with 1 mcg of inhibitor), 0 µg/mL; in [11] (reaction time 60 min, with 10 mcg of inhibitor), 0 µg/mL. Also, the “Number of colonies after an action time of 6 hrs” value in data set [13] (0.1 mcg alone) is 1.0 × 10^8 N/ml.
As to `CCC1=C(C(=O)O)N2C(=O)CC2O1` (stereo not shown) [potassium salt of 2-ethyl-1-oxapenem-3-carboxylic acid], the “testability against intact bacteria (in words)” value in data set [14] is “too unstable for testing the antibacterial activity or the synergism with ampicillin against intact bacteria; also recorded: too unstable for testing synergism with ampicillin against intact bacteria”.
Consider `CC(C)(C)C1=C(C(=O)O)N2C(=O)C(CO)C2O1` (stereo not shown) [2-tert-butyl-6-hydroxymethyloxapenem-3-carboxylic acid K salt], for which, in data set [15], the “inhibited times more effectively than by formiminothienamycin” value came to 780 times.
With `CC(C)C1=C(C(=O)O)N2C(=O)C(C)(C)C2O1` (stereo not shown) [Compound IIIb], the half-life in data set [8] is 2 h.
